Data reported in patent publication US12006314B2, “Anti-cancer nuclear hormone receptor-targeting compounds” (Nuvation Bio Inc., priority 2021, dated 2024).

Tested on: IEC6 cells
Assay: Cell viability assay IEC6
Assay type: cell-based
Settings: Rattus norvegicus, IEC-6, 144 h; 6 days, CellTiterGlo
Method: Cell viability assay: LNCap, 22Rv1, MCF7, MDAMB361, T47D, and IEC6 cells were seeded at a density of 500-2000 cells/well in 96 well plates, and a ‘T0’ (timepoint 0) was included along with the assay plate. The plates were then incubated at 37° C., 5% CO2 in a cell culture incubator overnight. On the next day, the ‘T0’ plate was assayed using CellTiterGlo (Promega, Inc) according to the manufacturer's instructions. The appropriate compounds were diluted in DMSO and added to the assay plate (final DMSO concentration of 0.1-0.2%) on the next day. The assay plates were incubated for 6 days at 37° C., 5% CO2. After the incubation period, the plates were assayed using CellTiterGlo (Promega, Inc) according to the manufacturer's instructions and luminescence was read on the EnVision plate reader. Inhibition of the tested compounds was determined by the following formula: Inhibition rate (%)=(1−(RLU compound−RLU day0)/(RLU control−RLU day0))*100%. GraphPadPrism was used to analyze the data and determine GI50/IC50 values.

In the case of `CCc1cc2ncc(CN3CCN(C[C@H]4CC[C@H](COc5cc(F)c([C@@H]6c7[nH]c8ccccc8c7C[C@@H](C)N6CC(C)(C)F)c(F)c5)CC4)CC3)cc2[nH]c1=O` [Compound 75, 7-((4-(((1R,4r)-4-((3,5-Difluoro-4-((1R,3R)-2-(2-fluoro-2-methylpropyl)-3-methyl-2,3,4,9-tetrahydro-1H-pyrido[3,4-b]indol-1-yl)phenoxy)methyl)cyclohexyl)methyl)piperazin-1-yl)methyl)-3-ethyl-1,5-naphthyridin-2(1H)-one], the IC50 is reported as 5 to 30 µM.
